The test system of series [1] is cancers responsive to paclitaxel. Kind of series: Long term administration of paclitaxel at sub-therapeutic dose levels in cancer treatment. Format: in vivo. The source says:
In rapidly dividing cells as in a tumor, different cells are in different phases of the cell cycle at any given time.
The entire dose is usually given on the first day of the 3 week cycle.

The next series concerns tumor cell lines. The following applies: cited from earlier work.

The values that follow come from patent US20070196361A1, “Long term administration of pharmacologically active agents” (priority 1999, published 2007).

Consider `CC(=O)O[C@H]1C(=O)[C@@]2(C)[C@H]([C@H](OC(=O)c3ccccc3)[C@]3(O)C[C@H](OC(=O)[C@H](O)[C@@H](NC(=O)c4ccccc4)c4ccccc4)C(C)=C1C3(C)C)[C@]1(OC(C)=O)CO[C@@H]1C[C@@H]2O` [paclitaxel], for which the “benefit in the treatment of cancers responsive to paclitaxel” value in series [1] (continuous administration over 3 weeks, total cumulative dose e.g. 50-150 mg/m^2) is on record as “significant benefit is obtained”; in series [1] (plasma levels maintained at 0.01-0.05 μg/ml over a week or longer), “significant benefit is obtained”. The “concentration at which paclitaxel is active on tumor cell lines” value in the series on tumor cell lines (in vitro, tumor cell lines) is about 0.5 µg/mL. In the series on tumor cell lines (tumor cells of the cancer being treated), the “levels high enough to be cytotoxic to the tumor cells” value was 500 to 1000 ng/mL.
